# From PubChem BioAssay (NCI)
# Several values for one entry are separate records, joined by “and”; a condition that tells them apart may be missing. Identical values can stand only once.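 How tested: cells in 96-well plates exposed to compound for 48 hours at five concentrations. GI50 = concentration required for 50% inhibition of growth. TGI marks complete inhibition of growth.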 Activity calls are given as the source filed them. No stated cut-off is given here; in the data, active means GI50 below about 0.43 µM; inactive means the rest.
# What was measured:
# Experiment in all cases: DTP human tumour cell line panel, 48 h
# MOLT-4 leukemia = test system: MOLT-4 leukemia
# DMS 114 small cell lung = test system: DMS 114 small cell lung
# UACC-257 melanoma = test system: UACC-257 melanoma
# 786-0 renal = test system: 786-0 renal
# OVCAR-8 ovarian = test system: OVCAR-8 ovarian
# SK-MEL-5 melanoma = test system: SK-MEL-5 melanoma
# XF 498 CNS = test system: XF 498 CNS
# HOP-92 NSCLC = test system: HOP-92 NSCLC
# OVCAR-3 ovarian = test system: OVCAR-3 ovarian
# MALME-3M melanoma = test system: MALME-3M melanoma
# KM12 colon = test system: KM12 colon
# A498 renal = test system: A498 renal
# CAKI-1 renal = test system: CAKI-1 renal
# ACHN renal = test system: ACHN renal
# NCI-H522 lung = test system: NCI-H522 lung
# NCI-H23 lung = test system: NCI-H23 lung
# RXF 393 renal = test system: RXF 393 renal
# UO-31 renal = test system: UO-31 renal
# HOP-18 NSCLC = test system: HOP-18 NSCLC
# OVCAR-4 ovarian = test system: OVCAR-4 ovarian
# HT29 colon = test system: HT29 colon
# SNB-19 CNS = test system: SNB-19 CNS
# UACC-62 melanoma = test system: UACC-62 melanoma
# HL-60(TB) leukemia = test system: HL-60(TB) leukemia
# M14 melanoma = test system: M14 melanoma
# DMS 273 small cell lung = test system: DMS 273 small cell lung
# SK-MEL-2 melanoma = test system: SK-MEL-2 melanoma
# SK-OV-3 ovarian = test system: SK-OV-3 ovarian
# RPMI-8226 leukemia = test system: RPMI-8226 leukemia
# HOP-62 NSCLC = test system: HOP-62 NSCLC
# A549 NSCLC = test system: A549 NSCLC
# K-562 leukemia = test system: K-562 leukemia
# CCRF-CEM leukemia = test system: CCRF-CEM leukemia
# SN12C renal = test system: SN12C renal
# U251 CNS = test system: U251 CNS
# HCT-15 colon = test system: HCT-15 colon
# NCI-H460 lung = test system: NCI-H460 lung
# LOX IMVI melanoma = test system: LOX IMVI melanoma
# COLO 205 colon = test system: COLO 205 colon
# TK-10 renal = test system: TK-10 renal
# M19-MEL melanoma = test system: M19-MEL melanoma
# DLD-1 colon = test system: DLD-1 colon
# HCT-116 colon = test system: HCT-116 colon
# IGROV1 ovarian = test system: IGROV1 ovarian
# SF-268 CNS = test system: SF-268 CNS
# SK-MEL-28 melanoma = test system: SK-MEL-28 melanoma
# KM20L2 colon = test system: KM20L2 colon
# NCI-H226 lung = test system: NCI-H226 lung
# LXFL 529 NSCLC = test system: LXFL 529 NSCLC
# SW-620 colon = test system: SW-620 colon
# SNB-75 CNS = test system: SNB-75 CNS
# SF-539 CNS = test system: SF-539 CNS
# SR leukemia = test system: SR leukemia
# HCC-2998 colon = test system: HCC-2998 colon
# SNB-78 CNS = test system: SNB-78 CNS
# EKVX NSCLC = test system: EKVX NSCLC
# OVCAR-5 ovarian = test system: OVCAR-5 ovarian
# SF-295 CNS = test system: SF-295 CNS
smiles,measurement,setting,value
Cc1ccccc1NC(=O)C(=O)c1c(O)c2ccc(O)cc2oc1=O,TGI,MOLT-4 leukemia,> 100 µM
same,TGI,DMS 114 small cell lung,> 100 µM
same,TGI,UACC-257 melanoma,> 100 µM
same,TGI,786-0 renal,> 100 µM
same,TGI,OVCAR-8 ovarian,> 100 µM
same,TGI,SK-MEL-5 melanoma,> 100 µM
same,TGI,XF 498 CNS,> 100 µM
same,TGI,HOP-92 NSCLC,> 100 µM
same,TGI,OVCAR-3 ovarian,> 100 µM
same,TGI,MALME-3M melanoma,> 100 µM
same,TGI,KM12 colon,> 100 µM
same,TGI,A498 renal,> 100 µM
same,TGI,CAKI-1 renal,> 100 µM
same,TGI,ACHN renal,> 100 µM
same,TGI,NCI-H522 lung,> 100 µM
same,TGI,NCI-H23 lung,> 100 µM
same,TGI,RXF 393 renal,> 100 µM
same,TGI,UO-31 renal,> 100 µM
same,TGI,HOP-18 NSCLC,> 100 µM
same,TGI,OVCAR-4 ovarian,> 100 µM
same,TGI,HT29 colon,> 100 µM
same,TGI,SNB-19 CNS,> 100 µM
same,TGI,UACC-62 melanoma,> 100 µM
same,TGI,HL-60(TB) leukemia,> 100 µM
same,TGI,M14 melanoma,> 100 µM
same,TGI,DMS 273 small cell lung,> 100 µM
same,TGI,SK-MEL-2 melanoma,> 100 µM
same,TGI,SK-OV-3 ovarian,> 100 µM
same,TGI,RPMI-8226 leukemia,> 100 µM
same,TGI,HOP-62 NSCLC,> 100 µM
same,TGI,A549 NSCLC,> 100 µM
same,TGI,K-562 leukemia,> 100 µM
same,TGI,CCRF-CEM leukemia,> 100 µM
same,TGI,SN12C renal,> 100 µM
same,TGI,U251 CNS,> 100 µM
same,TGI,HCT-15 colon,> 100 µM
same,TGI,NCI-H460 lung,> 100 µM
same,TGI,LOX IMVI melanoma,> 100 µM
same,TGI,COLO 205 colon,> 100 µM
same,TGI,TK-10 renal,> 100 µM
same,TGI,M19-MEL melanoma,> 100 µM
same,TGI,DLD-1 colon,> 100 µM
same,TGI,HCT-116 colon,> 100 µM
same,TGI,IGROV1 ovarian,> 100 µM
same,TGI,SF-268 CNS,> 100 µM
same,TGI,SK-MEL-28 melanoma,> 100 µM
same,TGI,KM20L2 colon,> 100 µM
same,TGI,NCI-H226 lung,> 100 µM
same,TGI,LXFL 529 NSCLC,> 100 µM
same,TGI,SW-620 colon,> 100 µM
same,TGI,SNB-75 CNS,> 100 µM
N/C(=N\N=C/c1c2ccccc2c(Cl)c2ccccc12)NO,TGI,MOLT-4 leukemia,37.2 µM
same,outcome,MOLT-4 leukemia,inactive
same,GI50,SF-539 CNS,8.44 µM
same,TGI,SF-539 CNS,21.3 µM and 21.8 µM
same,outcome,SR leukemia,inactive
same,GI50,DMS 114 small cell lung,2.79 µM
same,TGI,DMS 114 small cell lung,12.8 µM and 10.2 µM
same,GI50,HCC-2998 colon,1.85 µM
same,TGI,HCC-2998 colon,13.7 µM and 3.97 µM
same,GI50,UACC-257 melanoma,4.25 µM
same,TGI,UACC-257 melanoma,11.8 µM and 14.6 µM
same,GI50,786-0 renal,5.63 µM
same,TGI,786-0 renal,26.1 µM and 19.6 µM
same,GI50,OVCAR-8 ovarian,1.99 µM
same,TGI,OVCAR-8 ovarian,18.9 µM and 4.92 µM
same,GI50,SK-MEL-5 melanoma,2.39 µM
same,TGI,SK-MEL-5 melanoma,16.6 µM and 6.5 µM
same,GI50,XF 498 CNS,3.26 µM
same,TGI,XF 498 CNS,30.5 µM and 17.1 µM
same,GI50,HOP-92 NSCLC,10.8 µM
same,TGI,HOP-92 NSCLC,12.3 µM and 28.7 µM
same,TGI,OVCAR-3 ovarian,14 µM
same,TGI,MALME-3M melanoma,19.4 µM
same,GI50,KM12 colon,4.01 µM
same,TGI,KM12 colon,21.7 µM and 16 µM
same,TGI,A498 renal,29 µM
same,TGI,CAKI-1 renal,19.5 µM and 18.5 µM
same,GI50,ACHN renal,3.84 µM
same,TGI,ACHN renal,15.8 µM and 13.8 µM
same,GI50,NCI-H522 lung,1.8 µM
same,TGI,NCI-H522 lung,14.2 µM and 3.98 µM
same,GI50,NCI-H23 lung,6.51 µM
same,TGI,NCI-H23 lung,17.3 µM and 19.8 µM
same,GI50,RXF 393 renal,4.61 µM
same,TGI,RXF 393 renal,3.5 µM and 17.9 µM
same,GI50,UO-31 renal,2.36 µM
same,TGI,UO-31 renal,22.5 µM and 7.44 µM
same,TGI,HOP-18 NSCLC,10.7 µM and 13.9 µM
same,TGI,SNB-78 CNS,25.3 µM and 30.5 µM
same,GI50,OVCAR-4 ovarian,2.62 µM
same,TGI,OVCAR-4 ovarian,20.4 µM and 15 µM
same,GI50,HT29 colon,2.84 µM
same,TGI,HT29 colon,15.6 µM and 8.47 µM
same,TGI,EKVX NSCLC,15.5 µM and 13.5 µM
same,GI50,SNB-19 CNS,7.87 µM
same,TGI,SNB-19 CNS,24.1 µM and 21.3 µM
same,GI50,UACC-62 melanoma,1.63 µM
same,TGI,UACC-62 melanoma,4.39 µM and 3.3 µM
same,TGI,HL-60(TB) leukemia,7.31 µM
same,GI50,M14 melanoma,2.65 µM
same,TGI,M14 melanoma,25.1 µM and 9.47 µM
same,TGI,DMS 273 small cell lung,3.89 µM
same,GI50,SK-MEL-2 melanoma,3.61 µM
same,TGI,SK-MEL-2 melanoma,23.3 µM and 16.9 µM
same,TGI,SK-OV-3 ovarian,10.5 µM
same,TGI,RPMI-8226 leukemia,26.6 µM
same,outcome,RPMI-8226 leukemia,inactive
same,GI50,HOP-62 NSCLC,5.71 µM
same,TGI,HOP-62 NSCLC,27.8 µM and 22.9 µM
same,GI50,OVCAR-5 ovarian,2.54 µM
same,TGI,OVCAR-5 ovarian,10.2 µM and 8.81 µM
same,GI50,A549 NSCLC,2.25 µM
same,TGI,A549 NSCLC,11 µM and 5.57 µM
same,GI50,K-562 leukemia,3.17 µM
same,GI50,CCRF-CEM leukemia,1.37 µM
same,TGI,CCRF-CEM leukemia,13.7 µM
same,GI50,SN12C renal,2.21 µM
same,TGI,SN12C renal,19.4 µM and 5.58 µM
same,TGI,U251 CNS,20 µM and 20.6 µM
same,GI50,HCT-15 colon,2.57 µM
same,TGI,HCT-15 colon,19.4 µM and 6.72 µM
same,GI50,NCI-H460 lung,2.81 µM
same,TGI,NCI-H460 lung,11 µM and 9.94 µM
same,TGI,LOX IMVI melanoma,12.2 µM
same,GI50,COLO 205 colon,3.22 µM
same,TGI,COLO 205 colon,14.1 µM and 14.7 µM
same,TGI,TK-10 renal,24.3 µM
same,GI50,M19-MEL melanoma,5.4 µM
same,TGI,M19-MEL melanoma,19.6 µM and 18.6 µM
same,TGI,DLD-1 colon,20.1 µM and 19.1 µM
same,GI50,HCT-116 colon,1.76 µM
same,TGI,HCT-116 colon,13.8 µM and 3.36 µM
same,GI50,SF-295 CNS,13 µM
same,TGI,SF-295 CNS,10.4 µM and 26.1 µM
same,TGI,IGROV1 ovarian,15.5 µM and 18.5 µM
same,GI50,SF-268 CNS,10.2 µM
same,TGI,SF-268 CNS,26 µM and 27.4 µM
same,TGI,SK-MEL-28 melanoma,27.6 µM and 27.5 µM
same,TGI,KM20L2 colon,4.81 µM
same,TGI,NCI-H226 lung,6.86 µM
same,GI50,SW-620 colon,1.86 µM
same,TGI,SW-620 colon,18 µM and 3.68 µM
same,TGI,SNB-75 CNS,25.8 µM and 32 µM
